Source: US20060135415A1, “Immunomodulation and effect on cell processes relating to serotonin family receptors and the blood-brain barrier” (priority 2002, published 2006)
pIC50: −log10 of the molar value. Entries after “also recorded” stand apart in the source; their conditions may differ.

Tests used:
[1] = test system: ConA stimulated human lymphocytes; test: Human mitogenic (ConA) stimulation, 3H-thymidine incorporation; type: cell-based; conditions: for activation / proliferative response: 5 μg/ml ConA, harvest 72 hours, drug titration (FIGS. 7A, 8A, 9A, 17, 33)
Procedure: Blood from healthy volunteers was drawn using venipuncture, using Vacutainer collection sets and heparinized collection vials. The blood was diluted 1:1 using HBSS to a total volume of 30 ml in 50 ml conical tubes (Fisher Scientific, Co., Pittsburgh, Pa.). […] Cells from the buffy coats were collected and the residual Histopaque was washed away using repeated centrifugations in HBSS. After washes, cells were resuspended at 5 million cells per ml in RPMI, supplemented with 2% FBS. To remove adherent cells, the suspension was plated onto a 6 well flat-bottom plate (Corning Costar), 3 ml/well, and incubated for 2 hours at 37° C., 5% CO2. Non-adherent cells were harvested after this incubation, were counted and resuspended in RPMI supplemented with 10% human serum (Sigma).
All drugs were pre-plated before the cell suspension was added onto each well of a 96-well round-bottom plate. All experimental conditions were assayed in at least triplicate. Cells suspended in RPMI supplemented with 10% human serum were plated at 100,000 cells per well to a final volume of 200 μl. […] Control samples received no ConA stimulation. The plates were incubated at 37° C. and 5% CO2.

[2] = test system: allogeneic stimulation of human lymphocytes; test: Human mixed lymphocyte reaction (allogeneic stimulation), 3H-thymidine; type: cell-based
Text: Blood from two healthy, non-related, donors was taken as described above. Peripheral blood mononuclear cells were isolated as described previously elsewhere. The adherent cells were separated from the suspension cells as described previously for both donors. Suspension cells from both donors (donors A and B) were used as responders. The remaining adherent cells from each of the donors were used as stimulators against a different donor (suspension A against adherent B and adherent A against suspension B). The stimulator cells were irradiated at 35 Gy. Drugs were pre-plated onto 96 well, U-bottom plates in triplicate. 200,000 “stimulator” cells in RPMI supplemented with 10% human serum were then plated in each well. 200,000 “responder” cells in the same medium were then plated over stimulators to a final volume of 200 μl/well. Background controls received either no stimulator cells, or no responder cells. The plates were incubated at 37° C. and 5% CO2. 1 μCi of tritiated thymidine was added to each well after 4.5 days, and the plates were harvested 12 hours later.

[3] = test system: RPMI 8226 multiple myeloma cells; test: RPMI 8226 cell viability and proliferation (trypan blue, MTT, 3H-thymidine); type: cell-based, human; conditions: 3H-thymidine uptake, drug titration (FIGS. 19-25, 31, 32)
Procedure: The human plasmacytoma (multiple myeloma) cell line, RPMI 8226 (American Type Culture Collection, Manassas, Va.), was cultured in RPMI 1640 supplemented with 10 mM HEPES, 1 mM sodium pyruvate, 4.5 g/L glucose, 1.5 g/L bicarbonate and 20% FBS (non-heat inactivated).
Cell proliferation was assayed by three methods—Trypan Blue Exclusion was used to quantify the number of viable cells in culture; 3-(4,5-dimethylthiazol-2-yl)-2,5-diphenyl tetrazolium bromide (MTT) reduction was used to assay mitochondrial activity (and thus cell viability); and ^3H-Thymidine uptake was employed to assay for active DNA synthesis.
Three separate indicators of cell proliferation were employed to study the effects of 5-HT receptor modulating agents on the human multiple myeloma cell line, RPMI 8226. Cells were plated at 4 separate densities and were treated with LY53587 (an antagonist of the 5-HT2A/2B/2C receptors) at a range of concentrations. The exclusion of trypan blue dye was used as an indicator of cell viability. Cell numbers were then plotted against the concentration of drug added.
MTT reduction was also used as an indicator of cell viability (more specifically, mitochondrial activity). Absorbance values at OD570 were then plotted against drug concentration. Finally, DNA synthesis was assayed, through the measurement of ^3H-thymidine uptake, and counts per minute (CPMs) were plotted against drug concentration.
Culturing and administration of drugs and ^3H-thymidine were performed as described elsewhere herein.

RPMI 8226 cells [4] = test: DNA fragmentation (internucleosomal laddering); type: cell-based, human; conditions: RPMI 8226 cells (FIGS. 26, 35)
Procedure: Cells (8×10^5) were washed with ice-cold PBS following experimental treatments and pelleted by centrifugation (500×g, 5 min). Cell pellets were incubated for 5 minutes on ice in lysis buffer (1% IGEPAL-CA630, 20 mM EDTA, 50 mM Tris-HCL, pH 7.5). Lysates were centrifuged at about 1,600×g for 5 minutes. 501 μL of lysis buffer was added to the supernatant. The extract was brought to 1% SDS and treated for 2 hours with 5 μg/μL Rnase A (57° C.) followed by treatment with 2.5 μg/μL proteinase K for 2 hours (37° C.). After digestion of RNA and protein, half volume of 10 M ammonium acetate was added and the DNA was precipitated using 2.5 volumes of ethanol, washed in 70% ethanol, air-dried, and dissolved in TE buffer. DNA fragments were separated by electrophoresis in 1.5% agarose gels using a protocol adapted from Siegel et al. (1998, Proc. Natl. Acad. Sci. USA 95:162-166).

RPMI-8226 cells = test: Cytospin histochemistry (H&E, bis-benzamide) for chromatin; type: cell-based, human; conditions: 9 hour treatments; 50 μM SB compounds, 2 μM camptothecin (FIGS. 28, 29)
Procedure: 2.0×10^5 RPMI-8226 cells were cultured, in 6-well culture plates, in the presence of the indicated drug concentrations, in a total of 5 mL RPMI-1640 supplemented with 10% FBS. Each well was harvested in its entirety and divided into two identical samples for cytospins.
1.0×10^5 RPMI-8226 cells from each treatment group were loaded into Cyto-funnels and centrifuged at 500 rpm for 4 minutes with medium acceleration. Slides were then fixed through graded methanol in PBS (100%, 5 minutes; 80%, 5 minutes; 50%, 5 minutes), washed for 5 minutes in PBS and stored in PBS at 4° C. until stained.
Cytospun slides were stained with Hematoxylin and Eosin, followed by the nuclear stain, bis-benzamide, rinsed and mounted according to standard staining protocols. Slides were visualized under both brightfield and fluorescent light to generate matched images of the same slide field (see, e.g., FIGS. 28 and 29).

cells = test: Cell morphology change on inhibition of serotonergic signalling; type: cell-based; conditions: after 24 hours of treatment (FIG. 30)
Procedure: Briefly, cells were incubated with a 5-HTR antagonist (e.g., a selective type 1B inhibitor SD 216641) and the effects of treatment were assessed after 24 hours. […] For instance, detection of cell changes can be assessed using optical instruments (electron and light microscopy, as well as fluorescence activated cell sorting, and the like), or any other device that assesses and detects changes in cell size, density, morphology, and the like. Such devices are well known in the art and are not recounted here.

AKT = test: Western blot of phospho-(ser473)-AKT; type: cell-based, human; conditions: RPMI-8226 cells, 0, 6.25, 12.5, 25 μM for 3 hours (FIG. 37)
Procedure: 5×10^6 cells RPMI-8226 cells were treated with 0, 6.25, 12.5, and 25 μM SB216641 for 3 hours. Cells were lysed in lysis buffer (1% IGEPAL CA-635, 150 mM NaCl, 20 mM Tris-Cl pH 7.4, 1 mM PMSF, 1 mM EGTA, 1 mM NaF, 1 μg/mL aprotinin, 10 μg/mL leupeptin, 1 mM Na2OVa, 5 mM BGP) on ice for 15 minutes followed by centrifugation for 10 min to clear the lysate of membrane fragment. Supernatants were collected and protein concentrations determined with the BioRad Detergent Compatible Kit (Hercules, Calif.).
One-hundred micrograms of protein were loaded into each lane and separated through a 4% SDS-PAGE stacking gel and a 12% SDS-PAGE resolving gel. Proteins were electro-transferred to a 0.2 μm nitrocellulose membrane in transfer buffer (25 mM Tris, 192 mM glycine, 20% methanol, 0.1% SDS). Membranes were immuno-blotted with an anti-phosphoAkt antibody (New England Biolabs, Beverly, Mass.) to the serine-473 phosphorylation residue required for AKT activation and any antibody bound was visualized using an enhanced chemiluminescent system.

RPMI 8226 cells [5] = test: Annexin V / propidium iodide flow cytometry; type: cell-based, human; conditions: RPMI 8226 cells (FIGS. 27, 34)
Procedure: Early apoptotic cells were detected by co-staining cells previously exposed to each experimental condition. Briefly, cells were incubated during a time course in the presence of various concentrations of each experimental or control apoptosis inducing agent as set forth elsewhere herein. After incubation, the cells were washed with ice-cold PBS, stained with Annexin V-Alexa flour 488 and Propidium Iodide (Molecular Probes, Eugene, Oreg.) and analyzed by dual-color flow cytometry. Annexin V^+ and PI^− cells were considered as early apoptotic cells. The known terminal differentiator of myeloma cells, HMBA (hexamethylene-bis-acetamide), and the topoisomerase inhibitor, camtothecin, were used as positive controls for apoptosis at 5 mM and 2 μM, respectively.
Therefore, the degree of apoptosis in a cell population can be ascertained by assessing the presence of annexin-V positive cells and the absence of propidium iodide (PI) staining cells (necrotic cells). […] The extent of apoptosis was determined by analyzing flow cytometry data and generating FACS plots, which were then gated to include only the population of cells which were PI negative (non-necrotic). The degree of annexin-V positive cells was then measured in this PI negative cell population as a measure of apoptosis (FIG. 34).

[6] = In vivo screen for sedation / CNS effects after i.v. injection; parameters: species or system BALB/c mice
Procedure: Both QSS5 and QSS6 were assayed in vivo for the immediate ‘sleep’ effect.

[7] = test system: Chronic Lymphocytic Leukemia tumor cells; test: Ex planted bone marrow aspirates from a CLL patient; type: cell-based, human
human 5HT2C-INI receptor = target: T1, human 5HT2C-INI receptor (Homo sapiens, UniProt P28335); conditions: HEK-293 cells, data from Rauser et al. 2001 (FIG. 38); cited from earlier work
T1 sequence (P28335 33-458): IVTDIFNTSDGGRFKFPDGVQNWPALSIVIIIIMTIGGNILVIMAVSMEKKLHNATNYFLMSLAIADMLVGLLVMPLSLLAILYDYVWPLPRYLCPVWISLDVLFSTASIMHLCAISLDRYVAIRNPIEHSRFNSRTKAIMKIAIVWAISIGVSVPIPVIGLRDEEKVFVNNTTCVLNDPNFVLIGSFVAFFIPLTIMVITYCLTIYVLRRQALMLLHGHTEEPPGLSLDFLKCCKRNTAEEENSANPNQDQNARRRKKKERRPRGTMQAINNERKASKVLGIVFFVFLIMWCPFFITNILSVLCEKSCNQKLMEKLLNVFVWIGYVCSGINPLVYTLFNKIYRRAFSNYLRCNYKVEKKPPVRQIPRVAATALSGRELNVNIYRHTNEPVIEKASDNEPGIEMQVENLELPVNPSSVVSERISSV

| SMILES | activation / proliferative response [1] | pIC50 ([1]; ConA stimulation, read-out: apparent IC50) | activation / proliferative response ([2]; allogeneic stimulation, harvest 120 hours, drug titration (FIGS. 7B, 8B, 9B)) | pIC50 ([2]; allogeneic stimuli (weaker signal strength), read-out: apparent IC50) | growth / proliferation of RPMI 8226 cells [3] | DNA laddering (RPMI 8226 cells [4]) | chromatin condensation / fragmentation (apoptosis) (RPMI-8226 cells) | change in cell morphology (cells) | phospho-(ser473)-AKT level (AKT) | phospho-(ser473)-AKT level (AKT; listed as SB216641) | in vitro activation / proliferation of (helper) T cells ([1]; in vitro) | apoptosis, annexin-V positive / PI negative cells (RPMI 8226 cells [5]) | duration of sleep ([6]; 15 mg/kg i.v. tail vein, BALB/c mice) | sedation / abnormal behavior ([6]; 15 mg/kg i.v. tail vein, BALB/c mice, observed over 72 hour period) | sedative effect ([6]; intravenous injection in an animal) | tumor cell burden [7] | inverse agonism / inhibition of 5-HT 2C receptor (human 5HT2C-INI receptor) |
| --- | --- | --- | --- | --- | --- | --- | --- | --- | --- | --- | --- | --- | --- | --- | --- | --- | --- |
| COc1ccc(NC(=O)c2ccc(-c3ccc(-c4noc(C)n4)cc3C)cc2)cc1OCCN(C)C [SB 216641] | complete inhibition of the activation response | ~6.70 | complete inhibition of the activation response | ~7.30 | completely inhibited the growth of the cancer cells | increase in DNA laddering over control cell extracts | Extensive chromatin condensation and nuclear fragmentation; also recorded: induced programmed cell death comparable to that induced by the topoisomerase I inhibitor, camptothecin | an increase in cell size | down-regulates the activity of AKT | dose dependant decrease in phosphor-(ser473)-AKT |  |  |  |  |  |  |  |
| OCCN1CCN(CCCN2c3ccccc3Sc3ccc(C(F)(F)F)cc32)CC1 [Fluphenazine] | dramatic and dose-dependent decrease in proliferation |  |  |  |  | increase in DNA laddering over control cell extracts |  |  |  |  | inhibits T cell responses | significantly greater degree of apoptosis than any of the control cell populations | approximately 10 hours | instantly sedated | strong sedative, inducing sleep in an animal before the needle is withdrawn from the vein | reduces the tumor cell burden | potent inverse agonist; also recorded: effective inhibitor (inverse agonist) |
